SMILES strings stand for the structures.

The values below come from paper PMC8070004, “Isorhamnetin Ameliorates Dry Eye Disease via CFTR Activation in Mice” (International Journal of Molecular Sciences, 2021).

The target in the data set is T1, hERG potassium channel (Homo sapiens, UniProt Q12809).
T1 construct: expressed in transfected cells; host or cells: HEK293 / HEK293T
The data set is described as follows: FluxOR potassium ion channel assay in HEK293T cells expressing hERG. Format: cell-based. The conditions noted are these: 30 μM pretreated for 10 min. As for the experimental part:
HEK293 cells stably expressing human Kv11.1 (hERG) were plated in 96-well plates. After 48 h, the cells were incubated at 28 °C for 4 h to enhance membrane expression of hERG. The culture medium was replaced with 80 μL/well of FluxOR (Invitrogen) loading buffer and incubated for 1 h at 37 °C in the dark. After removal of the loading buffer, 100 µL of assay buffer were added to each well. To measure the effect of isorhamnetin on hERG channels, the cells were pretreated with isorhamnetin for 10 min. FluxOR fluorescence (excitation/emission: 490/525 nm) was recorded for 4 s before addition of 20 μL of stimulus buffer containing thallium ions, and the fluorescence was monitored. FluxOR fluorescence was recorded and analyzed using FLUOstar Omega Microplate Reader (BMG Labtech) and MARS Data Analysis Software (BMG Labtech). All buffers were prepared according to the manufacturer’s instructions.

T1 sequence (Q12809 whole entry): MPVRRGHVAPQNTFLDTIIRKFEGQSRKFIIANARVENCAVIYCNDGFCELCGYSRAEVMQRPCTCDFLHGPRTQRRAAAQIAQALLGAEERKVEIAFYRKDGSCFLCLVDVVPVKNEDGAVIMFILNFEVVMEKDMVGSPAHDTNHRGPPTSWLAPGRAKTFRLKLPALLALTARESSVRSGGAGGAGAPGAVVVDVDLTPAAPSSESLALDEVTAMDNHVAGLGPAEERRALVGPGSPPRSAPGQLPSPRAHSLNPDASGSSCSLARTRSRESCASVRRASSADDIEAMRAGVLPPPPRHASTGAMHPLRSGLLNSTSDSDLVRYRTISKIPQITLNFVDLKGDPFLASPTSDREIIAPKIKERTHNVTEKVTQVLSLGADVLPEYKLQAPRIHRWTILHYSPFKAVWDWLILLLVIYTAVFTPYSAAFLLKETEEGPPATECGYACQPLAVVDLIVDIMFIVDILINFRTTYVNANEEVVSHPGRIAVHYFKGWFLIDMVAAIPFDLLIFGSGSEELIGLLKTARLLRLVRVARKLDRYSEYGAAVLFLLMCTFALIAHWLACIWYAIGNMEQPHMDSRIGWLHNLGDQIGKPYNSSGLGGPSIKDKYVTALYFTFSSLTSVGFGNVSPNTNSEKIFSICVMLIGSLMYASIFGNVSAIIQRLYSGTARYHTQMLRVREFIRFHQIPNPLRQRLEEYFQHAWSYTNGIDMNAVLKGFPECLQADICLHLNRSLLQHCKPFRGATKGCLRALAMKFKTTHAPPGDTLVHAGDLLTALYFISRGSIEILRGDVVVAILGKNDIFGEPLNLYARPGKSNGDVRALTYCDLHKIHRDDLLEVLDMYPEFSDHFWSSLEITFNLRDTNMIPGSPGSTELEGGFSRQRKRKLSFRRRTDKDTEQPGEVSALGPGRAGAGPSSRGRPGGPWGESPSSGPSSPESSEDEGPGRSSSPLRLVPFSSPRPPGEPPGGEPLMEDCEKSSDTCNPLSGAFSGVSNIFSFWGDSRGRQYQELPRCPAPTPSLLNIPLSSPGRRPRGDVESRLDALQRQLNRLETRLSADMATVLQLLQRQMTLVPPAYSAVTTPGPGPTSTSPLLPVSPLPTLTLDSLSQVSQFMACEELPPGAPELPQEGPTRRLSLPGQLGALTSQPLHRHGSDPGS

Take `COc1cc(-c2oc3cc(O)cc(O)c3c(=O)c2O)ccc1O` [isorhamnetin]: the hERG channel activity entry is “did not affect”.
